Columns and labels:
[1] = system: human fetal lung fibroblasts IMR-90; format: cell-based; details: modified MTT, 48 h exposure, 0.8–200 µM, four parameter logistic fit; ± SD, at least three independent experiments; read-out: IC50 IMR-90
Protocol: DICAM’s cytotoxicity was determined employing a modified MTT assay as described elsewhere ([Antúnez-Mojica et al., 2016]) using human lung carcinoma epithelial cells A549, human fetal lung fibroblasts IMR-90, and human HeLa cervix carcinoma cells treated with increasing concentrations of DICAMs (0.8–200 µM range). A549 cells were grown in RPMI 1640 (Gibco; Fisher Scientific, Spain) supplemented with 10% FCS, 2 mM glutamine, 100 IU/mL penicillin and 100 μg/mL streptomycin. IMR-90 and HeLa cells were cultured in DMEM (Gibco; Fisher Scientific, Spain) supplemented with 10% FCS, 2 mM L-glutamine, 1 mM pyruvate, […] penicillin, 100 μg/mL streptomycin and 40 μg/mL gentamycin. Cell viability was assessed after 48 h exposure to DICAMs. Vinblastine was used as a positive control. IC50 value is the concentration that gives 50% inhibition of cell growth and was determined using SigmaPlot (Systat) fitting to a Four Parameter Logistic curve.

S. pneumoniae D39 = format: cell-based, Streptococcus pneumoniae
Source text: First, the substitution of the fatty amino chain of 18 carbon atoms of the reference compound DICAM 2 by either an OMe group (methylated tripeptide DICAM 5) or an amine with 12 carbon atoms (DICAM 9) abolished the activity against all three pathogens. However, the activity remained intact when the chain of the fatty amine of prototypes DICAMs 1 and 4 was two carbon atoms shorter (DICAM 10 and DICAM 12, respectively), based on S. pneumoniae and S. pyogenes results. […] Third, Glu and Ala were tolerated as C-terminal residues of the lipotripeptides. […] In addition, deletion of the C-terminal Glu (DICAM 13) eradicated the activity against S. pneumoniae and S. aureus. However, a delay and small inhibition of S. pyogenes ^T growth was still observed. Fourth, Glu (DICAMs 19 and 20) and Orn (DICAMs 21 and 22) were tolerated as N-terminal residues, with the impact of these modifications being pathogen-dependent. […] SAR studies continued by measuring the dose dependence of DICAM’s activity at T1 with all the compounds found to be active against S. pyogenes or S. aureus in the initial screening, and all but one compound in the case of S. pneumoniae. The OD values of bacterial cultures were monitored after DICAM addition, and the decrease in the number of viable bacteria was measured relative to controls (Figures 4–6; Supplementary Figure S1). As antibacterial efficacy may decline with the bacterium dose in the inoculum ([Belley et al., 2009]; [Udekwu et al., 2009]; [Luca et al., 2013]), the assays were performed using the bacterial concentrations necessary for the fluorescence experiments in Section 2.3 (10^7–10^8 CFU/mL). At these high bacterial densities, MICs were determined as the DICAM concentration at which bacteria neither grow nor are killed (the stationary concentration (SC)), following [Udekwu et al., 2009]. By fitting the logarithmic plot of cell viability decrease vs. the DICAM dose to a Hill function (see Section 5.2.3.1) we were able to determine the maximum variation in viability (Δlogmax = ∆log f - ∆log 0, where ∆log f and ∆log 0 are the upper and lower limits of Δlog) in the assay conditions, the SC concentration (Δlog = 0), the dose required for half-variation in Δlogmax (K 1/2), and the cooperativity of the antimicrobial effect (N H).
Susceptibility to DICAMs was first tested by growth-inhibition assays at 50 and 100 μM of compound. Briefly, working solutions at 5 mM or 10 mM DICAM in pure DMSO were prepared from DICAM stocks (40 mM in pure DMSO) and diluted with fresh culture medium to 5× the desired final concentration. Aliquots (50 µL) of these solutions were added to 200 µL of bacterium cultures grown to early exponential phase (OD550/600 c. a. 0.15–0.2 in sterile 96-well plates (Cultek, Spain). Incubation continued for 10 h at 37°C and turbidity (OD550/600) values were measured every 20 min to monitor growth and lysis, using a VersaMax microplate reader (Molecular Devices; United Kingdom). Next, the activity dependence on DICAM’s dose was examined by measuring the turbidity of treated and untreated cultures as a function of time. Also, the decay of bacterial viability (CFU/mL) at selected times of treatment was assessed by colony counting on LB-agar or TSA plates after overnight incubation at 37°C. By default, 10 μL of 10-fold serially diluted samples were plated, which set the lower detection limit at 10^2 CFU/mL (10^1 CFU/mL when 100 μL of the undiluted sample was seeded).
As antibacterial efficacy may decline with the bacterium dose in the inoculum ([Belley et al., 2009]; [Udekwu et al., 2009]; [Luca et al., 2013]), activity assays were performed using the bacterial concentrations required for the fluorescence experiments in Section 2.3 (10^7–10^8 CFU/mL). At such bacterial densities, MICs were determined as the DICAM concentration at which bacteria neither grow nor are killed under assay conditions (the stationary concentration (SC)), as indicated in Section 2.2. […]

[2] = system: Streptococcus pneumoniae R6; experiment: Growth inhibition / lysis screening of planktonic cultures (OD550/600); format: cell-based; parameters: key: (+++) full inhibition; (++) partial inhibition; (+) growth retardation; -: (−) no effect; details: S. pneumoniae R6, 50 and 100 μM compound added at early logarithmic phase (T1), OD550/600 followed 10 h, 37°C
Outline: (§1)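 Early exponential-phase cultures (OD550/600 c. a. 0.15–0.2) were treated with DICAMs at 50 and 100 μM final, diluted from DMSO stocks into medium, and incubated 10 h at 37°C. Turbidity (OD550/600) was read every 20 min against untreated controls to track growth inhibition and lysis.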

Streptococcus pyogenes T = experiment: Growth inhibition screening of planktonic cultures (OD550/600); format: cell-based; parameters: key: (+++) full inhibition; (++) partial inhibition; (+) growth retardation; -: (−) no effect; details: S. pyogenes T, 50 and 100 μM compound added at T1, OD550/600 followed 10 h, 37°C
Outline: as §1

Ala - Pro -Glu-NH-C18H37 · HCl [DICAM 23]
IC50 [1]: 57 ± 2 µM
SC (stationary concentration, Δlog = 0), S. pneumoniae D39 (S. pneumoniae D39; 1 h treatment, C + Y medium, 37°C, added at T1, 10^7–10^8 CFU/mL, CFU vs untreated controls, Hill fit): 2.9 ± 0.8 µM
EC50 (S. pneumoniae D39; 1 h treatment, C + Y, 37°C, Hill fit, read-out: K 1/2 (concentration yielding half-variation in Δlogmax), S. pneumoniae D39 (converted)): 8.6 ± 0.3 µM
Reduction of the number of viable cells at saturating doses (S. pneumoniae D39; S. pneumoniae D39, within 60 min): ≥ 4.6 log-units
Reduction of the number of viable cells at 3 × SC, S. pneumoniae (S. pneumoniae D39; after 1-h incubation at 3 × SC values): 99.2%–99.8
Δlogmax, S. pneumoniae D39 (S. pneumoniae D39; maximum variation in viability, 1 h treatment, C + Y, 37°C, Hill fit): 5.4 ± 0.2 logarithmic units
Growth halt or lysis (50/100 μM), Spn [2]: +++
Growth halt or lysis (50/100 μM), Spy T (Streptococcus pyogenes T): +++
